Data: patent US4544658A, “1-Cyclopropyl-6-fluoro-1,4-dih ydro-4-oxo-7-(alkyl-1-piperazinyl)quinoline-3-carboxylic acids, processes for their preparation and antibacterial agents containing them” (Bayer Aktiengesellschaft, priority 1982, dated 1985)
Values after ≈ are worked out from the molar mass of the structure shown.

Key:
Assay in all cases: MIC, agar dilution test; Denley multipoint inoculation procedure
Type in all cases: cell-based
[1] = test system: E. coli Neumann; settings: Escherichia coli, read-out: Minimum inhibitory concentration (MIC)
[2] = test system: Serratia 16040; settings: read-out: Minimum inhibitory concentration (MIC)
[3] = test system: Staphylococcus 133; settings: read-out: Minimum inhibitory concentration (MIC)
[4] = test system: Staphylococcus 1756; settings: read-out: Minimum inhibitory concentration (MIC)
[5] = test system: Providencia 12052; settings: read-out: Minimum inhibitory concentration (MIC)
[6] = test system: Klebsiella 6179; settings: read-out: Minimum inhibitory concentration (MIC)
[7] = test system: Klebsiella 57 USA; settings: read-out: Minimum inhibitory concentration (MIC)
[8] = test system: Staphylococcus Fk422; settings: read-out: Minimum inhibitory concentration (MIC)
[9] = test system: Klebsiella 8085; settings: read-out: Minimum inhibitory concentration (MIC)

| SMILES | MIC [1] [µg/mL] | MIC [2] [µg/mL] | MIC [3] [µg/mL] | MIC [4] [µg/mL] | MIC [5] [µg/mL] | MIC [6] [µg/mL] | MIC [7] [µg/mL] | MIC [8] [µg/mL] | MIC [9] [µg/mL] |
| --- | --- | --- | --- | --- | --- | --- | --- | --- | --- |
| CCN1[C@H](C)CN(c2cc3c(cc2F)c(=O)c(C(=O)O)cn3C2CC2)C[C@@H]1C [Example 5, 1-cyclopropyl-6-fluoro-1,4-dihydro-4-oxo-7-(4-ethyl-3,5-dimethyl-1-piperazinyl)quinoline-3-carboxylic acid hydriodide] | 0.03 (≈ 0.0774 µM) | 32 (≈ 82.6 µM) | 0.5 (≈ 1.29 µM) | 0.5 (≈ 1.29 µM) | 32 (≈ 82.6 µM) | 0.5 (≈ 1.29 µM) | 0.5 (≈ 1.29 µM) | 0.5 (≈ 1.29 µM) | 0.03 (≈ 0.0774 µM) |
| CC1CN(c2cc3c(cc2F)c(=O)c(C(=O)O)cn3C2CC2)CCN1 (stereo not drawn) [Example 1, 1-cyclopropyl-6-fluoro-1,4-dihydro-4-oxo-7-(3-methyl-1-piperazinyl)quinoline-3-carboxylicacid semihydrate] | ≤ 0.015 | 4 | 0.25 | 0.25 | 16 | 0.125 | 0.03 | 0.25 | ≤ 0.015 |
| CCN1CCN(c2cc3c(cc2F)c(=O)c(C(=O)O)cn3C2CC2)CC1C.I.O (stereo not drawn) [Example 4, 1-cyclopropyl-6-fluoro-1,4-dihydro-4-oxo-7-(4-ethyl-3-methyl-1-piperazinyl)quinoline-3-carboxylic acid hydriodide monohydrate] | 0.03 | 16 | 0.25 | 0.5 | 32 | 0.25 | 0.25 | 0.5 | ≤ 0.015 |
| C[C@@H]1CN(c2cc3c(cc2F)c(=O)c(C(=O)O)cn3C2CC2)C[C@H](C)N1 [Example 3, 1-cyclopropyl-6-fluoro-1,4-dihydro-4-oxo-7-(3,5-dimethyl-1-piperazinyl)quinoline-3-carboxylic acid] | ≤ 0.015 | 16 (≈ 44.5 µM) | 0.25 (≈ 0.696 µM) | 0.25 (≈ 0.696 µM) | 16 (≈ 44.5 µM) | 0.25 (≈ 0.696 µM) | 0.125 (≈ 0.348 µM) | 0.5 (≈ 1.39 µM) | ≤ 0.015 |
